Assay type in all cases: biochemical
One assay deals with GSK3β (Homo sapiens, UniProt P49841). Nature of the assay: GSK3β ATP depletion assay. The following applies: ATP depletion assay; read-out: GSK3b IC50. A digest of the protocol: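 Human GSK3β (5 nM) preincubated 15 min with 10 μM biotinylated phospho-CREB peptide in pH 7.5 Tris buffer (15 mM MgCl2, 1 mM DTT, 0.1% BSA, 2.5% DMSO). Reaction started with 2 μM ATP and run to about 50% ATP depletion. Remaining ATP measured by KinaseGlo luminescence.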

The target in a further assay is PIM1 (Homo sapiens, UniProt P11309). Nature of the assay: Pim 1 AlphaScreen assay (high ATP). The conditions noted are these: read-out: Pim1 IC50. On the procedure: (§1) Pim1, Pim2, Pim3 AlphaScreen Assay Pim 1, Pim 2 & Pim 3 AlphaScreen assays using high ATP (11-125×ATP Km) were used to determine the biochemical activity of the inhibitors. The activity of Pim 1, Pim 2, & Pim 3 is measured using a homogeneous bead based system quantifying the amount of phosphorylated peptide substrate resulting from kinase-catalyzed phosphoryl transfer to a peptide substrate. Compounds to be tested are dissolved in 100% DMSO and directly distributed to a white 384-well plate at […] per well. To start the reaction, 5 μl of 100 nM Bad peptide (Biotin-AGAGRSRHSSYPAGT —OH) and ATP (concentrations described below) in assay buffer (50 mM Hepes, pH=7.5, 5 mM MgCl2, 0.05% BSA, 0.01% Tween-20, 1 mM DTT) is added to each well. This is followed by the addition of 5 μl/well of Pim 1, Pim 2 or Pim 3 kinase in assay buffer (concentrations described below). Final assay concentrations (described below) are in 2.5% DMSO. The reactions are performed for ˜2 hours, then stopped by the addition of 10 μl of 0.75 μg/ml anti-phospho Ser/Thr antibody (Cell Signaling), 10 μg/ml Protein A AlphaScreen beads (Perkin Elmer), and 10 μg/ml streptavidin coated AlphaScreen beads in stop/detection buffer (50 mM EDTA, 95 mM Tris, pH=7.5, 0.01% Tween-20). The stopped reactions are incubated overnight in the dark. The phosphorylated peptide is detected via an […] initiated chemiluminescence/fluorescence cascade using the Envision plate reader (Perkin Elmer).
(§2) IC50, the half maximal inhibitory concentration, represents the concentration of a test compound that is required for 50% inhibition of its target in vitro under the described assay conditions.
(In general: Bead proximity is the source of the signal in Alpha formats.)

The target in another assay is PIM2 (Homo sapiens, UniProt Q9P1W9). In words: Pim 2 AlphaScreen assay (high ATP). The conditions noted are these: read-out: Pim2 IC50. A digest of the protocol: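 This is a bead-based AlphaScreen run at high ATP (11-125× Km) with biotin-Bad peptide (100 nM in the substrate mix), in 50 mM Hepes pH 7.5, 5 mM MgCl2, 0.05% BSA, 0.01% Tween-20, 1 mM DTT and 2.5% DMSO final. After ~2 h the reaction was stopped with EDTA. Phospho-peptide was detected overnight with anti-phospho Ser/Thr antibody on Protein A and streptavidin beads, giving IC50.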

Another assay has as its target PIM3 (Homo sapiens, UniProt Q86V86). In words: Pim 3 AlphaScreen assay (high ATP). The conditions noted are these: read-out: Pim3 IC50. On the procedure:
as §1, §2

Chain of PIM2 (Q9P1W9 whole entry): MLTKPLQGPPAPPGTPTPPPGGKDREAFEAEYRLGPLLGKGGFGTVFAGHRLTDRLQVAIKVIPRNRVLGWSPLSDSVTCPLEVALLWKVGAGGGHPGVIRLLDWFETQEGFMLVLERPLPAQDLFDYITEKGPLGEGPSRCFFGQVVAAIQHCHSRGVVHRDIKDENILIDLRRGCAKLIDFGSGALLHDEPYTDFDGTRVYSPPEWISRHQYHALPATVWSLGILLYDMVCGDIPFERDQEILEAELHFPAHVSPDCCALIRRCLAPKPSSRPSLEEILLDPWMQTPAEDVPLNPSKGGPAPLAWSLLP
Chain of PIM1 (P11309 whole entry): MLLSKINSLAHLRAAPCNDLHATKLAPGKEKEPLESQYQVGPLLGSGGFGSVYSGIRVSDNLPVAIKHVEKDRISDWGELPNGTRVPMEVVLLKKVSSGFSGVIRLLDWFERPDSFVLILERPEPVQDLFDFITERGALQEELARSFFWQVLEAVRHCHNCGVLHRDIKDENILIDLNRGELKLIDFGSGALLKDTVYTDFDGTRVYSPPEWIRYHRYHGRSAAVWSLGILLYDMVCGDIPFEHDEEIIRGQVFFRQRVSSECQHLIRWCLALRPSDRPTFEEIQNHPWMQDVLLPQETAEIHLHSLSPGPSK
Chain of GSK3β (P49841 whole entry, species assumed): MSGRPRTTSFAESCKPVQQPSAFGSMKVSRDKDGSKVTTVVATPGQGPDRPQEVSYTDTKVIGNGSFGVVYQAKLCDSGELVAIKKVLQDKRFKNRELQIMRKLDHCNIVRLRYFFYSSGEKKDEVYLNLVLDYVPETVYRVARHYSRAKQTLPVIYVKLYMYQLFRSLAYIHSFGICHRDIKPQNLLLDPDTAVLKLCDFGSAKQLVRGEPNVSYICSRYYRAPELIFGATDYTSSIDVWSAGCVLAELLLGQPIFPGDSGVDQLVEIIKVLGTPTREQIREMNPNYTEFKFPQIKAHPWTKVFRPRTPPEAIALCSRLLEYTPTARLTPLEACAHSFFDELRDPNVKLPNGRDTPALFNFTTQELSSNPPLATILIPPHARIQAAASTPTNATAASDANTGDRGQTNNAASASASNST

On to `C[C@]1(O)[C@H](N)C[C@H](c2ccncc2NC(=O)c2ccc(F)c(-c3c(F)cccc3F)n2)O[C@@H]1C1CC1` [Example 256, N-(4-((2R,4R,5S,6R)-4-amino-6-cyclopropyl-5-hydroxy-5-methyltetrahydro-2H-pyran-2-yl)pyridin-3-yl)-6-(2,6-difluorophenyl)-5-fluoropicolinamide], for which the IC50 (as a rule, the concentration at which inhibition is half-maximal) at GSK3β stood at 4620 nM; at PIM1, 0.17 nM; at PIM2 it was 6.1 nM; on PIM3, 1.7 nM.

Regarding `C[C@@]1(O)[C@@H](N)C[C@@H](c2ccncc2NC(=O)c2ccc(F)c(-c3c(F)cccc3F)n2)O[C@H]1C1CC1` [Example 257, N-(4-((2S,4S,5R,6S)-4-amino-6-cyclopropyl-5-hydroxy-5-methyltetrahydro-2H-pyran-2-yl)pyridin-3-yl)-6-(2,6-difluorophenyl)-5-fluoropicolinamide], the IC50 turned out to be 20000 nM at GSK3β, 1.88 nM on PIM1, 173 nM at PIM2 and 35.9 nM at PIM3.

In the case of `CC[C@]1(O)[C@H](N)C[C@H](c2ccncc2NC(=O)c2ccc(F)c(-c3c(F)cc(OC)cc3F)n2)O[C@@H]1C` [Example 258, N-(4-((2R,4R,5S,6R)-4-amino-5-ethyl-5-hydroxy-6-methyltetrahydro-2H-pyran-2-yl)pyridin-3-yl)-6-(2,6-difluoro-4-methoxyphenyl)-5-fluoropicolinamide], the IC50 on GSK3β came to 183 nM; on PIM1, 0.04 nM; at PIM2, 6.2 nM; at PIM3, 0.5 nM.

For the compound `CC[C@]1(O)[C@H](N)C[C@H](c2ccncc2NC(=O)c2ccc(F)c(-c3c(F)cc(C)cc3F)n2)O[C@@H]1C` [Example 259, N-(4-((2R,4R,5S,6R)-4-amino-5-ethyl-5-hydroxy-6-methyltetrahydro-2H-pyran-2-yl)pyridin-3-yl)-6-(2,6-difluoro-4-methylphenyl)-5-fluoropicolinamide], the IC50 on GSK3β is 218 nM; at PIM1, 0.03 nM; on PIM2 it was 4.8 nM; at PIM3, 0.4 nM.

On to `CC(C)(C)[C@H]1O[C@@H](c2ccncc2NC(=O)c2nc(-c3c(F)cccc3F)ncc2N)C[C@@H](N)[C@@H]1O` [Example 260, 5-amino-N-(4-((2R,4R,5S,6R)-4-amino-6-tert-butyl-5-hydroxytetrahydro-2H-pyran-2-yl)pyridin-3-yl)-2-(2,6-difluorophenyl)pyrimidine-4-carboxamide], for which the IC50 on GSK3β is 1040 nM; at PIM1, 0.34 nM; at PIM2, 6 nM; on PIM3, 3.6 nM.

With `C[C@]1(O)[C@H](N)C[C@H](c2ccncc2NC(=O)c2nc(-c3c(F)cccc3F)c(F)cc2N)O[C@@H]1C1CC1` [Example 261, 3-amino-N-(4-((2R,4R,5S,6R)-4-amino-6-cyclopropyl-5-hydroxy-5-methyltetrahydro-2H-pyran-2-yl)pyridin-3-yl)-6-(2,6-difluorophenyl)-5-fluoropicolinamide], the IC50 is 5520 nM on GSK3β, 0.11 nM at PIM1, 6.1 nM at PIM2 and 1.2 nM on PIM3.

As to `C[C@]1(O)[C@H](N)C[C@H](c2ccncc2NC(=O)c2nc(-c3c(F)cccc3F)ncc2N)O[C@@H]1C1CC1` [Example 262, 5-amino-N-(4-((2R,4R,5S,6R)-4-amino-6-cyclopropyl-5-hydroxy-5-methyltetrahydro-2H-pyran-2-yl)pyridin-3-yl)-2-(2,6-difluorophenyl)pyrimidine-4-carboxamide], the IC50 on GSK3β stood at 2020 nM; at PIM1, 2.15 nM; at PIM2, 18.2 nM; on PIM3, 18.1 nM.

Regarding `C[C@]1(O)[C@H](N)C[C@H](c2ccncc2NC(=O)c2csc(-c3c(F)cccc3F)n2)O[C@@H]1C1CC1` [Example 263, N-(4-((2R,4R,5S,6R)-4-amino-6-cyclopropyl-5-hydroxy-5-methyltetrahydro-2H-pyran-2-yl)pyridin-3-yl)-2-(2,6-difluorophenyl)thiazole-4-carboxamide], the IC50 worked out at 334 nM on GSK3β, 1.26 nM at PIM1, 72.7 nM on PIM2 and 23.1 nM on PIM3.

In the case of `Cc1cc(F)c(-c2nc(C(=O)Nc3cnccc3[C@H]3C[C@@H](N)[C@](C)(O)[C@@H](C4CC4)O3)ccc2F)c(F)c1` [Example 264, N-(4-((2R,4R,5S,6R)-4-amino-6-cyclopropyl-5-hydroxy-5-methyltetrahydro-2H-pyran-2-yl)pyridin-3-yl)-6-(2,6-difluoro-4-methylphenyl)-5-fluoropicolinamide], the IC50 was 1790 nM on GSK3β, 0.11 nM at PIM1, 8.1 nM at PIM2 and 2.4 nM at PIM3.

As for `COc1cc(F)c(-c2nc(C(=O)Nc3cnccc3[C@H]3C[C@@H](N)[C@](C)(O)[C@@H](C4CC4)O3)ccc2F)c(F)c1` [Example 265, N-(4-((2R,4R,5S,6R)-4-amino-6-cyclopropyl-5-hydroxy-5-methyltetrahydro-2H-pyran-2-yl)pyridin-3-yl)-6-(2,6-difluoro-4-methoxyphenyl)-5-fluoropicolinamide], the IC50 was found to be 1050 nM at GSK3β, 0.13 nM at PIM1, 9.6 nM at PIM2 and 2.3 nM on PIM3.

Regarding `C[C@@]1(O)[C@@H](N)C[C@@H](c2ccncc2NC(=O)c2ccc(F)c(-c3c(F)cccc3F)n2)OC12CC2` [Example 266, N-(4-((5S,7S,8R)-7-amino-8-hydroxy-8-methyl-4-oxaspiro[2.5]octan-5-yl)pyridin-3-yl)-6-(2,6-difluorophenyl)-5-fluoropicolinamide], the IC50 at GSK3β is 6060 nM; on PIM1 it was 1.98 nM; at PIM2, 394 nM; at PIM3, 27.5 nM.

Turning to `C[C@]1(O)[C@H](N)C[C@H](c2ccncc2NC(=O)c2ccc(F)c(-c3c(F)cccc3F)n2)OC12CC2` [Example 267, N-(4-((5R,7R,8S)-7-amino-8-hydroxy-8-methyl-4-oxaspiro[2.5]octan-5-yl)pyridin-3-yl)-6-(2,6-difluorophenyl)-5-fluoropicolinamide], the IC50 at GSK3β worked out at 6930 nM; at PIM1, 2.52 nM; on PIM2, 213 nM; at PIM3, 29.7 nM.

In the case of `CC(C)(C)[C@H]1O[C@@H](c2ccncc2NC(=O)c2csc(-c3c(F)cccc3F)n2)C[C@@H](N)[C@@H]1O` [Example 268, N-(4-((2R,4R,5S,6R)-4-amino-6-tert-butyl-5-hydroxytetrahydro-2H-pyran-2-yl)pyridin-3-yl)-2-(2,6-difluorophenyl)thiazole-4-carboxamide], the IC50 on GSK3β came out at 207 nM; at PIM1, 0.16 nM; at PIM2, 20.3 nM; at PIM3, 3.6 nM.

For `COc1cc(F)c(-c2nc(C(=O)Nc3cnccc3[C@H]3C[C@@H](N)[C@H](O)[C@@H](C(C)(C)C)O3)ccc2F)c(F)c1` [Example 269, N-(4-((2R,4R,5S,6R)-4-amino-6-tert-butyl-5-hydroxytetrahydro-2H-pyran-2-yl)pyridin-3-yl)-6-(2,6-difluoro-4-methoxyphenyl)-5-fluoropicolinamide], the half-maximal inhibitory concentration (IC50) was 613 nM at GSK3β, 0.03 nM at PIM1, 2.4 nM at PIM2 and 0.5 nM on PIM3.

As for `Cc1cc(F)c(-c2nc(C(=O)Nc3cnccc3[C@H]3C[C@@H](N)[C@H](O)[C@@H](C(C)(C)C)O3)ccc2F)c(F)c1` [Example 270, N-(4-((2R,4R,5S,6R)-4-amino-6-tert-butyl-5-hydroxytetrahydro-2H-pyran-2-yl)pyridin-3-yl)-6-(2,6-difluoro-4-methylphenyl)-5-fluoropicolinamide], the IC50 was 1060 nM on GSK3β, 0.03 nM on PIM1, 3.1 nM at PIM2 and 0.5 nM on PIM3.

For `CC(C)[C@H]1O[C@@H](c2ccncc2NC(=O)c2ccc(F)c(-c3c(F)cccc3F)n2)C[C@@H](N)[C@@H]1O` [Example 271, N-(4-((2R,4R,5S,6R)-4-amino-5-hydroxy-6-isopropyltetrahydro-2H-pyran-2-yl)pyridin-3-yl)-6-(2,6-difluorophenyl)-5-fluoropicolinamide], the IC50 at GSK3β was found to be 2750 nM; on PIM1 it was 0.15 nM; on PIM2 it was 4.3 nM; at PIM3, 2.1 nM.

These data come from patent publication US20130109682A1, “CYCLIC ETHER COMPOUNDS USEFUL AS KINASE INHIBITORS” (NOVARTIS AG, priority 2010, published 2013).
